From PubChem BioAssay (NCI) come the findings set out here.

Test systems include MDA-MB-231 breast; SK-MEL-5 melanoma; HT29 colon; COLO 205 colon; NCI-H226 lung; M14 melanoma; K-562 leukemia; SK-OV-3 ovarian; SF-539 CNS; HOP-62 NSCLC.
Common to all, as to assay: inhibition of tumour cell growth, NCI panel, 48 h

Values joined by “and” are separate entries in the source; they are usually repeats but may differ in a detail not shown here. Equal entries are not always repeated.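 Each compound was tested at five concentrations against cells in 96-well plates for 48 hours. GI50 marks 50% less growth. TGI marks complete inhibition of growth.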

As for `NC(=O)c1nnn(Cc2cc(Cl)c(C(=O)c3ccc(Cl)cc3)c(Cl)c2)c1N`, the TGI in the experiment with MDA-MB-231 breast is greater than 52.8 µM; in the experiment with SK-MEL-5 melanoma it was > 9.09 µM and 32.7 µM; in the experiment on HT29 colon, > 9.09 µM and 42 µM; in the experiment on COLO 205 colon it was > 9.09 µM and 48 µM; in the experiment with NCI-H226 lung, > 9.09 µM and 55.8 µM; in the experiment with M14 melanoma it was > 9.09 µM and 36.7 µM. The TGI was greater than 70.2 µM in the experiment on K-562 leukemia; greater than 52.9 µM in the experiment with SK-OV-3 ovarian; > 9.09 µM and 46.5 µM with SF-539 CNS; > 9.09 µM and 41.1 µM in the experiment with HOP-62 NSCLC. The GI50 in the experiment with SK-MEL-5 melanoma was greater than 9.09 µM; in the experiment with HT29 colon, greater than 9.09 µM; with COLO 205 colon, greater than 9.09 µM; in the experiment on NCI-H226 lung, greater than 9.09 µM; in the experiment with M14 melanoma, greater than 9.09 µM; in the experiment on K-562 leukemia, 2.19 µM. Besides, the GI50 in the experiment on SK-OV-3 ovarian, with SF-539 CNS and in the experiment with HOP-62 NSCLC was greater than 9.09 µM each time.

In the case of `CS(=O)(=O)N1CCN(Cc2cc3nc(-c4cccc5[nH]ncc45)nc(N4CCOCC4)c3s2)CC1`, the GI50 in the experiment with MDA-MB-231 breast was 2.62 µM and 0.504 µM; with SK-MEL-5 melanoma, 1.11 µM and 0.537 µM; with HT29 colon, 0.284 µM and 0.101 µM; in the experiment with COLO 205 colon, 0.499 µM and 0.163 µM; in the experiment on NCI-H226 lung it was 0.408 µM and 0.473 µM; with M14 melanoma, 2.13 µM and 0.438 µM. Moreover, the GI50 in the experiment with K-562 leukemia was 3.91 µM and > 2.17 µM; with SK-OV-3 ovarian it was 0.243 µM and 0.145 µM; in the experiment on SF-539 CNS it was 0.444 µM and 0.268 µM; in the experiment on HOP-62 NSCLC it was 0.655 µM and 0.573 µM. In addition, the TGI in the experiment on MDA-MB-231 breast is greater than 100 µM; in the experiment on SK-MEL-5 melanoma it was greater than 100 µM; with HT29 colon, greater than 100 µM; in the experiment on COLO 205 colon, greater than 100 µM; with NCI-H226 lung, greater than 21.6 µM; with M14 melanoma, greater than 100 µM. The TGI in the experiment with K-562 leukemia was greater than 100 µM; in the experiment with SK-OV-3 ovarian, 3.84 µM and 1.68 µM; in the experiment on HOP-62 NSCLC, greater than 100 µM.

`O=C(O)CNC(=O)c1ccccc1O`: the TGI in the experiment with MDA-MB-231 breast, with SK-MEL-5 melanoma, in the experiment with HT29 colon, with COLO 205 colon, with NCI-H226 lung and in the experiment on M14 melanoma was greater than 100 µM throughout. Moreover, the TGI with K-562 leukemia, in the experiment with SK-OV-3 ovarian, in the experiment on SF-539 CNS and in the experiment with HOP-62 NSCLC was greater than 100 µM throughout.

On to `C(=N/Nc1ncnc2nc[nH]c12)/c1ccccn1`, for which the GI50 was 0.609 µM with MDA-MB-231 breast; 1.28 µM in the experiment on SK-MEL-5 melanoma; 4.07 µM in the experiment on HT29 colon; 1.72 µM in the experiment on COLO 205 colon; 1.57 µM in the experiment with NCI-H226 lung; 0.766 µM in the experiment on M14 melanoma. In addition, the GI50 in the experiment on K-562 leukemia was 0.803 µM; in the experiment with SK-OV-3 ovarian it was 0.456 µM; in the experiment on SF-539 CNS, 1.3 µM; in the experiment with HOP-62 NSCLC, 0.687 µM. The TGI was greater than 100 µM in the experiment on MDA-MB-231 breast; 4.61 µM with SK-MEL-5 melanoma; greater than 100 µM with HT29 colon; greater than 100 µM in the experiment on COLO 205 colon; 53.1 µM with NCI-H226 lung; 3.63 µM in the experiment on M14 melanoma. The TGI with K-562 leukemia was greater than 100 µM; with SK-OV-3 ovarian, 15.6 µM; in the experiment with SF-539 CNS, 5.72 µM; in the experiment with HOP-62 NSCLC it was greater than 100 µM.

With `Cc1ccc(Cl)cc1Nc1nc(C(F)(F)F)ccc1C(=O)N/N=C/c1c(Cl)cccc1Cl`, the GI50 with MDA-MB-231 breast is 0.524 µM; with SK-MEL-5 melanoma, 1.52 µM; in the experiment with HT29 colon, 0.791 µM; with COLO 205 colon it was 0.395 µM; in the experiment with NCI-H226 lung, 1.1 µM; in the experiment on M14 melanoma, 1 µM. Also, the GI50 in the experiment on K-562 leukemia was 0.734 µM; in the experiment with SK-OV-3 ovarian, 0.899 µM; with SF-539 CNS it was 1.62 µM; in the experiment on HOP-62 NSCLC it was 0.745 µM. The TGI with MDA-MB-231 breast was 2.85 µM; in the experiment on SK-MEL-5 melanoma it was 3.82 µM; in the experiment on HT29 colon, greater than 100 µM; with COLO 205 colon, 1.72 µM; in the experiment with NCI-H226 lung it was 4.53 µM; with M14 melanoma, 5.67 µM. In addition, the TGI with K-562 leukemia is greater than 32.1 µM; in the experiment with SK-OV-3 ovarian it was 4.76 µM; in the experiment on SF-539 CNS, 5.05 µM; in the experiment with HOP-62 NSCLC, 2.29 µM.

Consider `O=C(N/N=C/c1coc2ccc(Cl)cc2c1=O)c1ccncc1`, for which the GI50 was 80.6 µM in the experiment with MDA-MB-231 breast; 44.8 µM in the experiment with SK-MEL-5 melanoma; greater than 100 µM in the experiment with HT29 colon; greater than 100 µM with COLO 205 colon; 38.6 µM in the experiment with NCI-H226 lung; 37.5 µM in the experiment on M14 melanoma. For the same compound, the GI50 with K-562 leukemia is 9.49 µM; in the experiment on SK-OV-3 ovarian, greater than 100 µM; with SF-539 CNS it was 75.9 µM; in the experiment on HOP-62 NSCLC it was 39.7 µM. Further, the TGI with MDA-MB-231 breast, with SK-MEL-5 melanoma, in the experiment on HT29 colon, with COLO 205 colon, in the experiment with NCI-H226 lung and in the experiment with M14 melanoma was greater than 100 µM each time. For the same compound, the TGI is 66.9 µM with K-562 leukemia, greater than 100 µM in the experiment with SK-OV-3 ovarian, greater than 100 µM in the experiment with SF-539 CNS and greater than 100 µM in the experiment with HOP-62 NSCLC.

As to `CC1(C)CC(=O)C2=C(C1)NC(SSC1=C(C#N)C(c3ccc(Br)cc3)C3=C(CC(C)(C)CC3=O)N1)=C(C#N)C2c1ccc(Br)cc1` (stereo not drawn), the GI50 is 26.6 µg/mL with MDA-MB-231 breast; greater than 150 µg/mL with SK-MEL-5 melanoma; greater than 150 µg/mL in the experiment on HT29 colon; greater than 150 µg/mL in the experiment on COLO 205 colon; greater than 150 µg/mL in the experiment with NCI-H226 lung; 51.4 µg/mL in the experiment with M14 melanoma. For the same compound, the GI50 in the experiment with K-562 leukemia was 30.8 µg/mL; with SK-OV-3 ovarian, greater than 150 µg/mL; with SF-539 CNS, greater than 150 µg/mL; in the experiment with HOP-62 NSCLC it was greater than 150 µg/mL. The TGI in the experiment with MDA-MB-231 breast was > 100 µM and 53.5 µg/mL; with SK-MEL-5 melanoma, > 100 µM and 150 µg/mL; in the experiment on HT29 colon it was > 100 µM and 150 µg/mL; with COLO 205 colon, > 100 µM and 150 µg/mL; with NCI-H226 lung, > 100 µM and 150 µg/mL; with M14 melanoma, > 100 µM and 150 µg/mL. Further, the TGI is > 100 µM and 76.4 µg/mL in the experiment on K-562 leukemia; > 100 µM and 150 µg/mL in the experiment on SK-OV-3 ovarian; > 100 µM and 150 µg/mL in the experiment on SF-539 CNS; > 100 µM and 150 µg/mL in the experiment with HOP-62 NSCLC.

Regarding `Fc1ccc(-c2ncn(C3CCNCC3)c2-c2ccnc(Oc3ccccc3)n2)cc1`, the GI50 was 13.4 µM with MDA-MB-231 breast; 4.87 µM in the experiment on SK-MEL-5 melanoma; 8.3 µM in the experiment with HT29 colon; 7.32 µM in the experiment on COLO 205 colon; greater than 25 µM in the experiment on NCI-H226 lung; 9.86 µM in the experiment with M14 melanoma. Further, the GI50 in the experiment on K-562 leukemia was 10.8 µM; with SK-OV-3 ovarian it was 20.1 µM; in the experiment on SF-539 CNS, greater than 25 µM; in the experiment with HOP-62 NSCLC it was greater than 25 µM. The TGI in the experiment with MDA-MB-231 breast is greater than 25 µM; in the experiment with SK-MEL-5 melanoma, 14.1 µM; in the experiment on HT29 colon it was greater than 25 µM; in the experiment on COLO 205 colon, 18.6 µM; in the experiment on NCI-H226 lung, greater than 25 µM; in the experiment on M14 melanoma it was greater than 25 µM. The TGI in the experiment with K-562 leukemia, with SK-OV-3 ovarian, with SF-539 CNS and in the experiment on HOP-62 NSCLC was greater than 25 µM throughout.
